{"source": "patent US20190076440A1", "about": "“TREATMENT OF TISSUE DISORDERS” (priority 2016, published 2019)", "key": {"R992C Col2a1 SEDC mice": {"tested_on": "R992C Col2a1 SEDC mice", "assay": "TUNEL assay of chondrocyte apoptosis in the tibial growth plate of SEDC mice", "assay_type": "in vivo", "conditions": "single treated mouse, no quantitative analysis", "procedure": "The effect of CBZ on p.R992C Col2a1 mutant mice (spondyloepiphyseal dysplasia congenital (SEDC) model mice) was tested.\nR992C Col2a1 SEDC mice were treated with carbamazepine (CBZ), to determine whether treatment ameliorates the disease phenotype. Increased chondrocyte apoptosis within the epiphyseal growth plate is associated with the onset of disease from 3 weeks in mouse models expressing this mutant form of COL2A1.\nChondrocyte apoptosis was detected by a Terminal deoxynucleotide transferase dUTP nick end labelling (TUNEL) assay. Tibial growth plates from wild type and SEDC mutant mice were stained according to the manufactures instructions before being imaged (data not shown)."}, "mutant collagen X": {"tested_on": "mutant collagen X", "assay": "Western blot of intracellular mutant collagen X protein, with proteasome or lysosome inhibitors", "assay_type": "cell-based", "procedure": "FIG. 1 illustrates the effects of carbamazepine treatment on ER stress induced by four different MCDS-causing mutations in collagen X; (a) BiP, b) CHOP c) spliced XBP1 mRNA level in cells transiently expressing one of four mutant collagen X constructs and treated for 24 hours with Carbamazepine (CBZ) (20 μM). Quantitation is relative to actin mRNA levels. Mean±SEM. (d) Western blot showing intracellular collagen X protein levels with and without 24 hours CBZ treatment. Quantification of three independent experiments shown in (e). (f) Western blot for N617K collagen X collagen X protein levels in the presence of CBZ for either 0 or 24 hours. […] Quantification of three independent experiments relative to GAPDH and standardised against the protein level in the 16 h untreated timepoint is shown in (h) and (i). […]\nFIG. 6 illustrates the degradation route of mutant collagen X proteins Western blot for (a) G618V or (c) Y598D collagen X protein levels in the presence of CBZ for either 0 or 24 hours. […] Quantification of three independent experiments relative to GAPDH and standardised against the protein level in the 16 h untreated timepoint is shown in (b) and (d). […]\nProtein was extracted from cells 24 hours post-transfection. […] The resulting supernatant was transferred to a fresh tube and protein concentration determined using a Pierce bicinchoninic acid (BCA) protein assay. […]"}, "[1]": {"tested_on": "cells expressing wild-type (WT) or N617K collagen X", "assay": "General protein synthesis rates in cells expressing collagen X", "assay_type": "cell-based", "conditions": "CBZ for 24 hours", "procedure": "FIG. 5 illustrates the effect of CBZ treatment in vitro (a) Cell viability of cell treated with 20 μM CBZ. (b) Collagen X mRNA level of HeLa cells transiently transfected with a rang of collagen X mutations in the presence or absence of CBZ for 24 hours. (c) General protein synthesis rates of cells expressing wild-type (WT) or N617K collagen X and treated with CBZ for 24 hours. UTF=untransfected cell controls. Mean±SEM of three independent experiments in each case."}, "[2]": {"tested_on": "wild type (+/+) or Col1a2 p.G610C (+/-) osteoblast cells", "assay": "Cellular stress assay: CHOP expression by qPCR in osteoblasts", "assay_type": "cell-based, mouse", "conditions": "20 μM CBZ, 21 days, relative to DMSO controls", "description": "Cells were incubated for 21 days with 20 μM CBZ before extracting RNA and quantification by qPCR. Each data point represents a separate biological replicate. Error bars show standard error of mean. *=p<0.05.\nExpression levels of CCAAT-enhancer binding protein homologous protein (CHOP) was measured. Wild type (+/+) or Col1a2 p.G610C (+/−) cells were incubated in osteogenic differentiation media for 21 days with or without 20 μM CBZ.\nRNA was extracted from the cells after 21 days and the levels of Chop gene expression was quantified by qPCR using a protocol as previously described herein."}}}
{"smiles": "NC(=O)N1c2ccccc2C=Cc2ccccc21", "note": "[CBZ, Carbamazepine]", "values": [{"measurement": "level of apoptosis in tibial growth plate chondrocytes (TUNEL)", "setting": "R992C Col2a1 SEDC mice", "value": "did not necessarily reduce"}, {"measurement": "degradation rates of mutant collagen X proteins", "setting": "mutant collagen X; each of 4 mutant collagen X proteins, PSII or chloroquine for the final 8 hours", "value": "enhanced the degradation rates"}, {"measurement": "intracellular levels of mutant collagen X protein", "setting": "mutant collagen X; each of 4 mutations, 24 hours CBZ treatment", "value": "significant reductions"}, {"measurement": "rates of general protein synthesis", "setting": "[1]", "value": "did not affect"}, {"measurement": "Chop expression", "setting": "[2]", "value": "significantly decreased"}]}
